Target: benzodiazepine receptor
Experiment: benzodiazepine receptor binding assay (NovaScreen), [3H]Flunitrazipam radioligand
Parameters: species or system bovine
From the text: After the final compounds are formed using the inventive reaction apparatus, method and system, they are individually tested for biological activity once they are isolated. For example, the method of Sweetnam, et al, Molecular Pharmacology 1986; 29:299 employing bovine cortical membranes as a receptor source and a radiolabeled benzodiazepine, such as Flunitrazepam, to determine competitive ligand binding to the benzodiazepine receptor (central [brain] localized) and some quantitative measure of relative binding potency such as KD or IC50 values. Performing this type of assay serves two purposes: 1) to discover new compounds with biological activity in a given biological screening assay and 2) the development of a relationship between the structural variations contained within the series and biological potency. This second utility is known as development of a structure activity relationship (SAR). This type of assay can be done using the compounds isolated from the array synthesis for any receptor binding screen or assay (screening for receptor agonists or antagonists), enzyme functional assays (measuring competitive or noncompetitive inhibition of the catalyzed reaction), and the like. This strategy may be used to screen for pharmaceutical agents, veterinary agents, agricultural agents, diagnostic reagents, and the like.
To verify that the compounds produced could be used directly in a biological assay, the crude benzodiazepines are tested for activity in a benzodiazepine receptor binding assay without further purification. (The assay was performed using the commercially available NovaScreen® assay system contracted by Scios-Nova Pharmaceutical Corp., Baltimore, Md., whereby bovine cortical membrane preparations were used as the source of receptor and the radioligand employed was [^3 H]Flunitrazipam while the positive control was Clonazepam.) The calculated IC50 's from three concentrations (average of two determinations) for the individual compounds are shown in Table 3.

[1] = crude benzodiazepines without further purification, bovine cortical membranes, [3H]Flunitrazipam, calculated from three concentrations (average of two determinations)
[2] = crude benzodiazepines without further purification, bovine cortical membranes, [3H]Flunitrazipam, cells that print their own unit mM

With `CN1C(=O)CN=C(c2ccccc2)c2cc(Cl)ccc21` [Diazepam, reference compound] the IC50 (commercially available reference samples (Table 3 footnote)) was 0.00067 µM.
Work on `CC1N=C(c2ccccc2)c2ccccc2NC1=O` (stereo not drawn) [Number 1] yielded an IC50 [1] of 5.79 µM.
With `CC1N=C(c2ccccc2)c2cc(Cl)ccc2NC1=O` (stereo not drawn) [Number 2] the IC50 [1] was 0.089 µM.
`COc1ccc(C2=NC(C)C(=O)Nc3ccccc32)cc1` (stereo not drawn) [Number 3] gave an IC50 [2] greater than 1000 µM.
Work on `CC1N=C(c2ccccc2)c2cc([N+](=O)[O-])ccc2NC1=O` (stereo not drawn) [Number 4] yielded an IC50 [1] of 0.482 µM.
Compound `Cc1ccc2c(c1)N(C(C)C)C(=O)C(C)N=C2c1ccccc1` (stereo not drawn) [Number 5] has an IC50 [2] greater than 1000 µM.
`CC1N=C(c2ccccc2)c2cc([N+](=O)[O-])ccc2N(C)C1=O` (stereo not drawn) [Number 6] showed an IC50 [1] of 1 µM.
In the case of `CC1N=C(C2CCCCC2)c2ccccc2NC1=O` (stereo not drawn) [Number 7], the IC50 [2] is reported as greater than 1000 µM.
`CC1N=C(c2cccs2)c2ccccc2NC1=O` (stereo not drawn) [Number 8] showed an IC50 [1] of 5.9 µM.
Compound `O=C1CN=C(c2ccccc2)c2ccccc2N1` [Number 9] has an IC50 [1] of 0.515 µM.
`O=C1CN=C(c2ccccc2)c2cc(Cl)ccc2N1` [Number 10] was tested, and the IC50 [1] was 0.032 µM.
With `COc1ccc(C2=NCC(=O)Nc3ccccc32)cc1` [Number 11] the IC50 [1] was 28.3 µM.
Compound `O=C1CN=C(c2ccccc2)c2cc([N+](=O)[O-])ccc2N1` [Number 12] has an IC50 [1] of 0.016 µM.
`Cc1ccc2c(c1)N(C(C)C)C(=O)CN=C2c1ccccc1` [Number 13] was tested, and the IC50 [1] was 18.6 µM.
For `CN1C(=O)CN=C(c2ccccc2)c2cc([N+](=O)[O-])ccc21` [Number 14], the IC50 [1] was 0.064 µM.
Work on `O=C1CN=C(C2CCCCC2)c2ccccc2N1` [Number 15] yielded an IC50 [1] of 25.7 µM.
`O=C1CN=C(c2cccs2)c2ccccc2N1` [Number 16] gave an IC50 [1] of 1.12 µM.
Compound `O=C1Nc2ccccc2C(c2ccccc2)=NC1Cc1c[nH]c2ccccc12` (stereo not drawn) [Number 17] has an IC50 [2] greater than 1000 µM.
In the case of `O=C1Nc2ccc(Cl)cc2C(c2ccccc2)=NC1Cc1c[nH]c2ccccc12` (stereo not drawn) [Number 18], the IC50 [2] is reported as greater than 1000 µM.
`COc1ccc(C2=NC(Cc3c[nH]c4ccccc34)C(=O)Nc3ccccc32)cc1` (stereo not drawn) [Number 19] gave an IC50 [2] greater than 1000 µM.
`O=C1Nc2ccc([N+](=O)[O-])cc2C(c2ccccc2)=NC1Cc1c[nH]c2ccccc12` (stereo not drawn) [Number 20] showed an IC50 [1] of 12.7 µM.

From US5714127A, “System for multiple simultaneous synthesis” (Warner-Lambert Company, priority 1995, dated 1998)
